One assay relates to C. jejuni. Briefly: MIC testing by broth dilution, C. jejuni. It counts as cell-based, Campylobacter jejuni. The essentials: (§1)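 Values are broth-dilution MICs, defined as the well showing no growth on visual reading after 24 h; the tested range was 32 to 0.06 μg/ml, in organism-specific media (LB, Trypticase Soy, Brain Heart Infusion). The C. difficile entries come instead from anaerobic Kirby-Bauer disk zones, normalised to NTZ.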
(In general: Dilution methods test growth across graded concentrations, often in twofold steps.)

For the next assay, the system named is C. difficile. Briefly: Disk diffusion (Kirby Bower), C. difficile. It counts as cell-based, Clostridium difficile. On the procedure:
A standard broth dilution protocol was used in 96 well microplates containing a standard dilution of the microorganism to be tested in 100 microliters of the appropriate medium. Appropriate medium: E. coli, LB medium; Staphylococcus strains, Trypticase Soy; and for H. pylori and C. jejuni, Brain Heart Infusion. The compounds to be tested were set at 32 μg/ml in 200 microliters in well one and then serially diluted to provide a range from 32 to 0.06. The wells were scored visually at 24 h. The well where there was no growth was recorded as the MIC. Clostridium difficile was tested by agar diffusion and disk diffusion (Kirby Bower) methods under anaerobic conditions on Wilkins Chalgrin agar. In these assays, zone of inhibited growth was measured and compared by relative ratio to the zone recorded for NTZ.
(§2) Representative compounds of the invention were tested in a series of assays against a series of organisms as described above. […] The organisms tested include, C. difficile, H. pylori, C. jejuni, MRSA, S. epidermidis, and E. coli. S. epidermidis and E. coli were tested in the plank and biofilm assay. A disk diffusion assay was also used for C. difficile. Direct PFOR enzyme assays were also performed. All analogues and derivatives were not tested on every organism in every type of assay (the “-” in each table means that it was not tested).

In another assay the test system is S. epidermidis. Briefly: MIC testing by broth dilution, S. epidermidis plank. It counts as cell-based, Staphylococcus epidermidis. The gist of the method:
as §1

The subject of another assay is H. pylori. Kind of assay: MIC testing by broth dilution, H. pylori. It counts as cell-based, Helicobacter pylori. The gist of the method: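 Helicobacter pylori was tested using a standard broth dilution method in 96 well microplates, each well holding a standard dilution of the organism in 100 microliters of Brain Heart Infusion. Compounds started at 32 μg/ml in 200 microliters in the first well and were serially diluted from 32 to 0.06. Wells were read visually at 24 h, and the MIC was the well with no growth.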

The next assay deals with E. coli. Briefly: MIC testing by broth dilution, E. coli plank. It counts as cell-based, Escherichia coli. The gist of the method: as §1
Another assay deals with MRSA. Kind of assay: MIC testing by broth dilution, MRSA. It counts as cell-based, Staphylococcus aureus. The essentials:
as §1

In a further assay the test system is E. coli biofilm. Briefly: E. coli biofilm assay (activity tables). Particulars: biofilm. It counts as cell-based, Escherichia coli. The essentials: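 E. coli strain 042 inoculated 1:100 with NTZ-containing medium and grown statically at 37 °C for 24 h. Growth measured by turbidity or plate counts (cfu/ml); biofilm stained with 0.5% crystal violet and read at 570 nm; triplicate, mean ± SD.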

A further assay deals with S. epidermidis biofilm. Kind of assay: S. epidermidis biofilm assay (activity tables). It counts as cell-based, Staphylococcus epidermidis. Particulars: for MIC S. epidermidis Biofilm: Furan analogues table. On the procedure: Staphylococcal strains were cultured overnight in TSB at 37° C. with shaking, diluted in fresh medium to an OD600 of 0.01 and 200 W was dispensed into sterile flat bottom polystyrene 96 well microtiter plates (Costar 3596, Corning Inc.). […] Each compound and dilution was tested in triplicate. The plates were incubated overnight at 37° C. in a humidified incubator, without shaking and both growth and biofilm accumulation were determined at 16 h.
Following recording of turbidities, the culture medium was aspirated and the wells were washed three times with distilled water, blotted on paper towels, and fixed with 75% ethanol for 10 minutes.
To visualize biofilm material, 0.5% crystal violet was added to each well and after 5 minutes was removed and the wells washed three times with distilled water. Plates were read using a microplate reader at a wavelength of 570 nm. The dye was then extracted by adding 200 W of 95% ethanol, and the absorbance was read again at 570 nm. All assays were performed in triplicate and the mean and standard deviation determined. […]
as §2

The mark [1] stands for this setting: broth dilution, Brain Heart Infusion, 24 h, read-out: MIC (μM) C. jejuni.
The mark [2] stands for this setting: broth dilution, Trypticase Soy, 24 h, read-out: MIC (μM) S. epidermidis Plank.
The mark [3] stands for this setting: broth dilution, Brain Heart Infusion, 24 h, read-out: MIC (μM) H. pylori.
[4] abbreviates: broth dilution, LB medium, 24 h, read-out: MIC (μM) E. coli Plank.
Where [5] appears, read: broth dilution, Trypticase Soy, 24 h, read-out: MIC (μM) MRSA.
Where [6] appears, read: read-out: MIC (μM) E. coli Biofilm.
The mark [7] stands for this setting: Furan analogues table, read-out: MIC C. jejuni.
Setting [8] is: planktonic, Furan analogues table, read-out: MIC S. epidermidis Plank.
Setting [9] is: Furan analogues table, read-out: MIC H. pylori.
[10] abbreviates: planktonic, Furan analogues table, read-out: MIC E. coli Plank.
Where [11] appears, read: Furan analogues table, read-out: MIC MRSA.
Setting [12] is: Furan analogues table, read-out: MIC E. coli Biofilm.

Values after ≈ are worked out from the molar mass of the structure shown. Read-outs that look alike come from different tables or passages of the source.

As for `CCCCCCCC(=O)Nc1ncc([N+](=O)[O-])s1` [VPC16b1046], the MIC with C. jejuni (setting [1]) is given as 106.9 µM (≈ 29 µg/mL); with S. epidermidis (setting [2]) it was 11.1 µM (≈ 3.01 µg/mL); in the assay on H. pylori (setting [3]), 0.8 µM (≈ 0.217 µg/mL); in the assay with E. coli (setting [4]), 117.9 µM (≈ 32 µg/mL); in the assay on MRSA (setting [5]), 59.0 µM (≈ 16 µg/mL); in the assay on E. coli biofilm (setting [6]), 88.4 µM (≈ 24 µg/mL). In addition, the “Disk Diffusion (%) C. difficile” value in the assay on C. difficile (zone of inhibited growth as relative ratio to the zone for NTZ) stood at 54 ± 4%. Moreover, the “MIC (μM) S. epidermidis Biofilm” value against S. epidermidis biofilm was found to be 7.4 µM (≈ 2.01 µg/mL).

As to `O=C(Nc1ncc([N+](=O)[O-])s1)c1ccccc1C(F)(F)F` [VPC161182], the MIC was 18.9 µM (≈ 6 µg/mL) with C. jejuni (setting [1]); 25.2 µM (≈ 7.99 µg/mL) in the assay on S. epidermidis (setting [2]); 1.6 µM (≈ 0.508 µg/mL) with H. pylori (setting [3]); 100.9 µM (≈ 32 µg/mL) in the assay on E. coli (setting [4]); 25.2 µM (≈ 7.99 µg/mL) with MRSA (setting [5]); 100.9 µM (≈ 32 µg/mL) in the assay on E. coli biofilm (setting [6]). Also, the “MIC (μM) S. epidermidis Biofilm” value in the assay on S. epidermidis biofilm was 50.4 µM (≈ 16 µg/mL).

Turning to `O=C(Nc1ncc([N+](=O)[O-])s1)c1ccc(-c2ccc([N+](=O)[O-])cc2)o1` [VPC161189], the MIC turned out to be 16.7 µM (≈ 6.02 µg/mL) in the assay with C. jejuni (setting [7]); 11.1 µM (≈ 4 µg/mL) in the assay on S. epidermidis (setting [8]); 6.9 µM (≈ 2.49 µg/mL) in the assay with H. pylori (setting [9]); 88.8 µM (≈ 32 µg/mL) with E. coli (setting [10]); 88.8 µM (≈ 32 µg/mL) with MRSA (setting [11]); 88.8 µM (≈ 32 µg/mL) with E. coli biofilm (setting [12]). Also, the “MIC S. epidermidis Biofilm” value in the assay on S. epidermidis biofilm stood at 11.1 µM (≈ 4 µg/mL).

Consider `O=C(Nc1ncc([N+](=O)[O-])s1)c1ccc(-c2cccc([N+](=O)[O-])c2)o1` [VPC161190], for which the MIC amounted to 16.7 µM (≈ 6.02 µg/mL) in the assay on C. jejuni (setting [7]); 11.1 µM (≈ 4 µg/mL) in the assay with S. epidermidis (setting [8]); 6.9 µM (≈ 2.49 µg/mL) in the assay on H. pylori (setting [9]); 88.8 µM (≈ 32 µg/mL) with E. coli (setting [10]); 44.4 µM (≈ 16 µg/mL) in the assay on MRSA (setting [11]); 88.8 µM (≈ 32 µg/mL) in the assay with E. coli biofilm (setting [12]). The “MIC S. epidermidis Biofilm” value in the assay with S. epidermidis biofilm came out at 11.1 µM (≈ 4 µg/mL).

Consider `COc1ccccc1C(=O)Nc1ncc([N+](=O)[O-])s1` [VPC161192], for which the MIC with C. jejuni (setting [1]) stood at 17.9 µM (≈ 5 µg/mL); with S. epidermidis (setting [2]) it was 114.6 µM (≈ 32 µg/mL); in the assay with H. pylori (setting [3]), 1.8 µM (≈ 0.503 µg/mL); in the assay with E. coli (setting [4]), 114.6 µM (≈ 32 µg/mL); in the assay with MRSA (setting [5]), 114.6 µM (≈ 32 µg/mL); in the assay with E. coli biofilm (setting [6]) it was 57.3 µM (≈ 16 µg/mL). Moreover, the “MIC (μM) S. epidermidis Biofilm” value with S. epidermidis biofilm turned out to be 114.6 µM (≈ 32 µg/mL).

With `O=C(Nc1ncc([N+](=O)[O-])s1)c1ccc(-c2ccccc2C(F)(F)F)o1` [VPC161196, N-(5-Nitrothiazol-2-yl)-5-(2-(trifluoromethyl)phenyl)furan-2-carboxamide], the MIC was 8.5 µM (≈ 3.26 µg/mL) with C. jejuni (Campylobacter jejuni, Furan analogues table, read-out: MIC C. jejuni); 5.7 µM (≈ 2.18 µg/mL) in the assay with S. epidermidis (Staphylococcus epidermidis, planktonic, Furan analogues table, read-out: MIC S. epidermidis Plank); 1.1 µM (≈ 0.422 µg/mL) in the assay with H. pylori (Helicobacter pylori, Furan analogues table, read-out: MIC H. pylori); 90.8 µM (≈ 34.8 µg/mL) with E. coli (Escherichia coli, planktonic, Furan analogues table, read-out: MIC E. coli Plank); 2.8 µM (≈ 1.07 µg/mL) with MRSA (Staphylococcus aureus, MRSA, Furan analogues table, read-out: MIC MRSA); 90.8 µM (≈ 34.8 µg/mL) with E. coli biofilm (Escherichia coli, Furan analogues table, read-out: MIC E. coli Biofilm). Further, in the assay on C. difficile (Nitazoxanide = 100, Furan analogues table), the “Disk Diff (%) C. difficile” value is given as 70.5 ± 0.5%. Moreover, the “MIC S. epidermidis Biofilm” value in the assay on S. epidermidis biofilm was found to be 5.7 µM (≈ 2.18 µg/mL).

For the origin of these results see patent publication US8835644B2, “Broad spectrum benzothiophene-nitrothiazolide and other antimicrobials” (University of Virginia Patent Foundation, priority 2009, dated 2014).
